Test results published in patent US6271247A, “Hydrazide compounds” (Adir et Compagnie, priority 1998, dated 2001).

Tests used:
Y5 receptor = target: T1, Y5 receptor (Homo sapiens, UniProt Q15761); assay: In vitro affinity for NPY receptors, competition binding with [125I]-PYY on cell line expressing the Y5 sub-type; settings: radioligand [125I]-PYY 15 to 65 pM
T1 construct: host or cells: unnamed cell line expressing the Y5 sub-type
T1 sequence (Q15761 1-445): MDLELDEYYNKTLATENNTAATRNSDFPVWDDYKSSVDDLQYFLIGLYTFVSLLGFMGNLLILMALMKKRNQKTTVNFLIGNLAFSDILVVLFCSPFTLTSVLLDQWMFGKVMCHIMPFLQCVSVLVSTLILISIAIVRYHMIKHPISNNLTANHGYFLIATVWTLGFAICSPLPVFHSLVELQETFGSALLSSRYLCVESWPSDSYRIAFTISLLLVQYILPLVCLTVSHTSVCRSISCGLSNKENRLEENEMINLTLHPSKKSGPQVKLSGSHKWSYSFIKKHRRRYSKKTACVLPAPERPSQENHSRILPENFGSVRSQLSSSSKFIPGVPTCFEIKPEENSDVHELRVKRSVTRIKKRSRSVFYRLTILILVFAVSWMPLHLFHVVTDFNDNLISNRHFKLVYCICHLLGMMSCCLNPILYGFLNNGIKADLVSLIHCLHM
Method: The capacity of the compounds of the invention to bind to NPY receptors was measured on various cell lines, each expressing one of the receptor sub-types studied. Competition binding experiments were carried out using the peptide [^125 I]-PYY as radioligand at concentrations ranging from 15 to 65 pM. The non-specific fraction is measured in the presence of a concentration of 1 μM NPY. The cells are incubated for a period ranging from 1 to 2 hours depending upon the lines, and the radioactivity is collected after filtration over a GF/C filter treated with 0.1% PEI, before being measured.
The results are expressed as IC50.

obese ob/ob mouse = assay: Effect on food intake and weight development in the obese ob/ob mouse; type: in vivo, mouse (female ob/ob C57B1/6J); settings: 5 mg/kg IP, twice daily
Method: The compounds of the invention were administered in vivo to the obese ob/ob mouse in order to evaluate their influence on food intake and weight development. The animals used are 13- to 18-week-old female ob/ob C57B1/6J mice. They are divided into groups each comprising 4 animals per cage, the cages being fitted with a grating floor, and the mice having free access to food.
Before the experiments, the animals are conditioned for a period ranging from 2 to 3 weeks until their food consumption has stabilised. The experiments may be summarised as follows:
D -14 to D -7: conditioning
D -7 to D -3: measurement of the basal food intake
D0 to D +3: animals treated twice daily, the control groups being given the carrier D0 to D +4: daily measurement of food intake and body weight
The test products are dissolved, immediately before use, in water, 0.9% sodium chloride, propylene glycol or dimethyl sulphoxide, depending upon their solubility, and are administered intraperitoneally (IP), in a volume of 2.5 ml/kg.
The parameters measured are the weight of the feed troughs containing the food and the body weight.
The results are expressed as: percentage variation in food intake under treatment compared with the basal food intake; percentage variation in body weight between the first and last day of treatment.

IC50 (Y5 receptor): 14.5 nM
Structure (SMILES): O=C(NNC(=O)C1CCC(CNS(=O)(=O)c2ccc3ccccc3c2)CC1)c1ccccc1 (stereo not drawn) [Example 44, N2-({4-[(2-Benzoylhydrazino)carbonyl]cyclohexyl}methyl)-2-naphthalenesulphonamide]
Food intake % variation (D1), Treated (compared with the basal food intake) (obese ob/ob mouse; D1, control -25.3): -75.2%
Body weight % variation (D4/D0) (obese ob/ob mouse; D4/D0): -6.0%
